Source: patent US4235904A, “4-Aryl-5-piperazinoalkyl-1,3-dioxol-2-ones, and compositions” (Instituto Luso Farmaco d'Italia S.p.A., priority 1978, dated 1980)
Structures can show the parent of a compound that is named as a salt.

Columns and labels:
plasmatic cholesterol = assay: Hypocholesterolemic activity: determination of plasmatic cholesterol in rats treated orally; type: in vivo; settings: Rattus norvegicus, po, 96 h, os, five treatments in 4 days, dose which reduces by 30% the content of plasmatic cholesterol, Table 1, read-out: Hypocholesterolemic activity, DE30 (rats)
Experimental: It has been evaluated orally in rats treated five times in 4 days (once daily during the first three days, twice daily on the fourth day) with the drugs under study. The animals, kept on an empty stomach, were killed on the fifth day, 18 hours after the last treatment. The following tests were carried out: The technique described by J. P. Blomhoff (Clin.Chim.Acta, 43,247, 1973) for the gas-chromatographic determination of total cholesterol was followed. 0,5 ml of the animal serum are hydrolysed at 50° C. for 1 hour with 5 ml of 2% alcoholic KOH. Cholesterol is extracted with 2% petroleum ether at 60°-80° C. and the gas-chromatographic analysis is carried out on the extract with cholesterol acetate as internal standard. The plasmatic cholesterol concentration of the treated animals is evaluated by comparing it with that of the controls. The calculated ED30 represents the dose which reduces by 30% the content of plasmatic cholesterol.

plasmatic triglycerides = assay: Hypotriglyceremic activity: determination of plasmatic triglycerides in rats treated orally; type: in vivo; settings: Rattus norvegicus, po, 96 h, os, five treatments in 4 days, dose which reduces by 30% the content of plasmatic triglycerides, Table 2, read-out: Hypotriglyceremic activity DE30 (rats)
Experimental: It has been evaluated orally in rats treated five times in 4 days (once daily during the first three days, twice daily on the fourth day) with the drugs under study. The animals, kept on an empty stomach, were killed on the fifth day, 18 hours after the last treatment. The following tests were carried out: The technique of […].,44, 267, 1966) is used; it consists in determining, by enzymatic route, the total glycerol made free by hydrolysis of the seric neutral fats. In particular, the "Biochemia Test Combination" (Boehringer Mannheim GMBH) was used. In this case, too, the seric concentration of triglycerides in the treated animals was compared with that in the controls. The calculated ED30 represents the dose which reduces by 30% the content of plasmatic triglycerides.

[1] = Antiulcer activity in the rat (immobilization, method of Rossi et al.); type: in vivo; settings: po, rats, os, 30 minutes before 4 hours immobilization, dose which protects 30% of the animals from ulcers, Table 3, read-out: Antiulcer activity DE30 (rats)
Experimental: (b) Antiulcer activity in the rat The method described by Rossi et al. (Comp.Rend.Soc.Biol., 150, 2124, 1956) was followed: 30 minutes after the oral treatment with the drugs under study, the animals, kept on an empty stomach for 48 hours, were immobilized for a period of 4 hours. At the end of this time, the presence of ulcers is checked after killing the animals by ether. The calculated ED30 represents the dose which protects 30% of the animals from ulcers.

[2] = Acute toxicity, DL50 (mice), ip; settings: for LD50: mouse, in vivo

Compound	ED30 (plasmatic cholesterol) [mg/kg]	ED30 (plasmatic triglycerides) [mg/kg]	ED30 [1] [mg/kg]	LD50 [2] [mg/kg]	Acute toxicity DL50 (mice) ([2]; Table 1) [mg/kg]	Acute toxicity DL50 (mice) ([2]; Table 2) [mg/kg]	Acute toxicity DL50 (mice) ([2]; Table 3) [mg/kg]
Cl.Cl.O=c1oc(CCN2CCN(c3ccccc3)CC2)c(-c2ccc(F)cc2)o1 [Compound 1, 4-(4-fluorophenyl)-5-[2-(4-phenyl-1-piperazinyl)ethyl]-1,3-dioxol-2-one dihydrochloride]	10	50	10	420	–	–	–
CN(CCc1ccccc1)CCc1oc(=O)oc1-c1ccc(F)cc1.Cl [Compound 2, 4-(4-fluorophenyl)-5-[2-(N-methyl-N-2-phenylethylamino)ethyl]-1,3-dioxol-2-one hydrochloride]	–	–	15	175	–	–	–
Cl.Cl.O=c1oc(CCN2CCN(c3ccccn3)CC2)c(-c2ccc(F)cc2)o1 [Compound 3, 4-(4-fluorophenyl)-5-[2-(4-(2-pyridyl)-1-piperazinyl)ethyl]-1,3-dioxol-2-one dihydrochloride]	25	–	–	350	–	–	–
CN1CCN(CCc2oc(=O)oc2-c2ccc(F)cc2)CC1.Cl.Cl [Compound 4, 4-(4-fluorophenyl)-5-[2-(4-methyl-1-piperazinyl)ethyl]-1,3-dioxol-2-one dihydrochloride]	–	–	20	300	–	–	–
COc1ccccc1N1CCN(CCc2oc(=O)oc2-c2ccc(F)cc2)CC1.Cl.Cl [Compound 5, 4-(4-fluorophenyl)-5-[2-(4-(2-methoxyphenyl)-1-piperazinyl)ethyl]-1,3-dioxol-2-one dihydrochloride]	–	–	30	350	–	–	–
Cl.Cl.O=c1oc(CCN2CCN(c3ccccc3)CC2)c(-c2ccccc2)o1 [Compound 6, 4-phenyl-5-[2-(4-phenyl-1-piperazinyl)ethyl]-1,3-dioxol-2-one dihydrochloride]	20	30	20	500	–	–	–
Cl.Cl.O=c1oc(CCN2CCN(c3ccccc3)CC2)c(-c2ccc(Cl)cc2)o1 [Compound 7, 4-(4-chlorophenyl)-5-[2-(4-phenyl-1-piperazinyl)ethyl]-1,3-dioxol-2-one dihydrochloride]	6	30	80	650	–	–	–
O=c1oc(CCN2CCOCC2)c(-c2ccc(F)cc2)o1 [Compound 8, 4-(4-fluorophenyl)-5-[2-(1-morpholinyl)ethyl]-1,3-dioxol-2-one hydrochloride]	–	–	30	> 1000	–	–	–
Cc1ccc(-c2oc(=O)oc2CCN2CCN(c3ccccc3)CC2)cc1.Cl [Compound 9, 4-(4-tolyl)-5-[2-(4-phenyl-1-piperazinyl)ethyl]-1,3-dioxol-2-one hydrochloride]	15	100	10	> 1000	> 1000	> 1000	–
Cl.O=c1oc(CCN2CCN(c3cc(Cl)cc(Cl)c3)CC2)c(-c2ccc(F)cc2)o1 [Compound 10, 4-(4-fluorophenyl)-5-[2-(4-(3,5-dichlorophenyl)-1-piperazinyl)ethyl]-1,3-dioxol-2-one hydrochloride]	–	100	50	> 1000	–	> 1000	–
CC1CN(CCc2oc(=O)oc2-c2ccc(F)cc2)CCN1c1ccc(Cl)cc1.Cl.Cl (stereo not shown) [Compound 11, 4-(4-fluorophenyl)-5-[2-(4-(4-chlorophenyl)-3-methyl-1-piperazinyl)ethyl]-1,3-dioxol-2-one dihydrochloride]	–	30	100	1000	–	–	–
Cl.O=c1oc(CCN2CCN(c3cc(Cl)ccc3Cl)CC2)c(-c2ccc(F)cc2)o1 [Compound 12, 4-(4-fluorophenyl)-5-[2-(4-(2,5-dichlorophenyl)-1-piperazinyl)ethyl]-1,3-dioxol-2-one hydrochloride]	–	30	–	–	–	1000	–
Cl.O=c1oc(CCN2CCN(c3ccc(Cl)c(Cl)c3)CC2)c(-c2ccc(F)cc2)o1 [Compound 13, 4-(4-fluorophenyl)-5-[2-(4-(3,4-dichlorophenyl)-1-piperazinyl)ethyl]-1,3-dioxol-2-one hydrochloride]	–	25	100	–	–	600	600
O=c1oc(CCN2CCN(c3ccccc3)CC2)c(-c2ccc3ccccc3c2)o1 [Compound 14, 4-(2-naphtyl)-5-[2-(4-phenyl-1-piperazinyl)ethyl]-1,3-dioxol-2-one hydrochloride]	20	100	–	830	–	–	–
COc1ccc(-c2oc(=O)oc2CCN2CCN(c3ccccc3)CC2)cc1.Cl.Cl [Compound 15, 4-(4-methoxyphenyl)-5-[2-(4-phenyl-1-piperazinyl)ethyl]-1,3-dioxol-2-one dihydrochloride]	–	20	–	> 1000	–	–	–
CSc1ccc(-c2oc(=O)oc2CCN2CCN(c3ccccc3)CC2)cc1.Cl.Cl [Compound 16, 4-(4-methylthiophenyl)-5-[2-(4-phenyl-1-piperazinyl)ethyl]-1,3-dioxol-2-one dihydrochloride]	–	100	–	> 1000	–	–	–
Cl.O=c1oc(CCN2CCC3(CCCCC3)CC2)c(-c2ccc(F)cc2)o1 [Compound 17, 4-(4-fluorophenyl)-5-[2-(3-azaspiro[5,5]undecan-3-yl)ethyl]-1,3-dioxol-2-one hydrochloride]	–	30	–	190	–	–	–
Cl.Cl.O=c1oc(CCN2CCN(C(c3ccccc3)c3ccc(Cl)cc3)CC2)c(-c2ccc(Cl)cc2)o1 (stereo not shown) [Compound 18, 4-(4-chlorophenyl)-5-[2-(4-(4-chlorobenzhydryl)-1-piperazinyl)ethyl]-1,3-dioxol-2-one dihydrochloride]	–	20	–	> 1000	–	–	–
O=C(O)/C=C\C(=O)O.O=c1oc(CCN2CCN(c3ncccn3)CC2)c(-c2ccc(Cl)cc2)o1 [Compound 19, 4-(4-chlorophenyl)-5-[2-(4-(2-pyrimidinyl)-1-piperazinyl)ethyl]-1,3-dioxol-2-one maleate]	30	–	–	375	–	–	–
Cl.O=c1oc(CCCN2CCN(c3ccccc3)CC2)c(-c2ccc(F)cc2)o1 [Compound 20, 4-(4-fluorophenyl)-5-[3-(4-phenyl-1-piperazinyl)propyl]-1,3-dioxol-2-one hydrochloride]	30	15	–	> 500	–	> 500	–
O=c1oc(CCN2CCN(c3ccc(Cl)cc3)CC2)c(-c2ccc(Cl)cc2)o1 [Compound 21, 4-(4-chlorophenyl)-5-[2-(4-chlorophenyl)-1-piperazinyl)ethyl]-1,3-dioxol-2-one hydrochloride]	–	100	–	> 1000	–	–	–
O=c1oc(CCN2CCC(c3ccccc3)CC2)c(-c2ccc(Cl)cc2)o1 [Compound 22, 4-(4-chlorophenyl)-5-[2-(4-phenyl)-1-piperidinyl)ethyl]-1,3-dioxol-2-one hydrochloride]	–	50	–	750	–	–	–
Cl.O=c1oc(CCN2CCN(C(c3ccccc3)c3ccccc3)CC2)c(-c2ccc(Cl)cc2)o1 [Compound 23, 4-(4-chlorophenyl)-5-[2-(4-benzhydryl-1-piperazinyl)ethyl]-1,3-dioxol-2-one hydrochloride]	–	100	–	> 1000	–	–	–
